Measured values taken from ChEMBL document CHEMBL4699654, “Computational Fragment-Based Design Facilitates Discovery of Potent and Selective Monoamine Oxidase-B (MAO-B) Inhibitor” (J Med Chem, 2020).

Experiments:
[1] = target: T1, Amine oxidase [flavin-containing] B (Homo sapiens, UniProt P27338); assay: Inhibition of recombinant human MAO-B expressed in Sf9 cells using benzylamine as substrate preincubated for 15 mins followed by substrate addition for 60 mins by Luminex assay; type: cell-based
T1 sequence (P27338 whole entry): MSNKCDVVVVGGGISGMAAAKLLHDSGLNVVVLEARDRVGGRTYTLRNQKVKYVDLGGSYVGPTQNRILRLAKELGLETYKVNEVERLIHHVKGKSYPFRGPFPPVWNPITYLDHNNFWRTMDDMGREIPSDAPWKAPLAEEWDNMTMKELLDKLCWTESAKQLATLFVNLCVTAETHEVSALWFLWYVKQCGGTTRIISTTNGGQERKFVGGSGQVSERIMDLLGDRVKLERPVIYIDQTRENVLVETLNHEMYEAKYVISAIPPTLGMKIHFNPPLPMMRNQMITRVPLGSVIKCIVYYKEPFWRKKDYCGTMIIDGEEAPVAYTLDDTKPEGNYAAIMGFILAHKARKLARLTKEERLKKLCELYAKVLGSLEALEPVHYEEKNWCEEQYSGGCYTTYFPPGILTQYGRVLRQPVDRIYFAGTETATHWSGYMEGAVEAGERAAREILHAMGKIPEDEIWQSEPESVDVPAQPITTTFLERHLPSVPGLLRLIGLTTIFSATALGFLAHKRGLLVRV

[2] = species on record: Homo sapiens; assay: Selectivity index, ratio of IC50 for recombinant human MAO-A to IC50 for recombinant human MAO-B
[3] = target: T2, Amine oxidase [flavin-containing] A (Homo sapiens, UniProt P21397); assay: Inhibition of recombinant human MAO-A expressed in Sf9 cells using p-tyramine as substrate preincubated for 15 mins followed by substrate addition for 60 mins by […] assay
T2 sequence (P21397 whole entry): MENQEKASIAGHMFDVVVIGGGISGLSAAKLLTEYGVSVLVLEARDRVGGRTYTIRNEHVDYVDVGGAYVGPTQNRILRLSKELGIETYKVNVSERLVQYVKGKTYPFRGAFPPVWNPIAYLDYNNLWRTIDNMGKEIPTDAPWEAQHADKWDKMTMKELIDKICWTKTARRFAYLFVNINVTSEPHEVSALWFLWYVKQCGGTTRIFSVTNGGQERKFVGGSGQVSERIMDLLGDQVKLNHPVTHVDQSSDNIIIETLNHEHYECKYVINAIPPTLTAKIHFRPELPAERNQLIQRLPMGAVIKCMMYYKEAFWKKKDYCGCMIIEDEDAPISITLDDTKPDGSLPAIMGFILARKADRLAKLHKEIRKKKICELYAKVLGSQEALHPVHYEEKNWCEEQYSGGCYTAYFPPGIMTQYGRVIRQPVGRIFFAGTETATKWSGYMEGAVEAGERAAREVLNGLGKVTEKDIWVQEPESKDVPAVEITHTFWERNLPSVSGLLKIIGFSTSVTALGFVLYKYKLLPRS

SMILES | IC50 [1] [nM] | Ratio IC50 [2] | IC50 [3] [µM]
NC(=O)[C@@H]1COCCN1Cc1ccc(OCc2cccc(F)c2)cc1 | 5410 |  | 
C#CCN(Cc1ccc(OCc2cccc(F)c2)cc1C)[C@@H](C)C(N)=O | 320 | 20 | 6.4
C#CCN(C)C(=O)[C@H](C)NCc1ccc(OCc2cccc(F)c2)cc1 | > 10000 |  | 
NC(=O)[C@@H]1CCCN1Cc1ccc(OCc2cccc(F)c2)cc1 | 204 | 168 | 34.2
NC(=O)C1CCN1Cc1ccc(OCc2cccc(F)c2)cc1 (racemic) | 46 | 391 | 18
C#CCN(Cc1ccc(OCc2cccc(F)c2)cc1Cl)[C@@H](C)C(N)=O | 68 | 82 | 5.59
Cc1cc(OCc2cccc(F)c2)ccc1CN[C@@H](C)C(N)=O | 69 | > 140 | > 10
NC(=O)[C@@H]1CCN1Cc1ccc(OCc2cccc(F)c2)cc1Cl | 35 | 61 | 2.13
C#CCN(Cc1ccc(OCc2cccc(F)c2)cc1F)[C@@H](C)C(N)=O | 93 | 94 | 8.71
C#CCN(Cc1ccc(OCc2cccc(F)c2)cc1)[C@@H](C)C(N)=O | 530 | 15 | 7.79
C[C@H](NCc1ccc(OCc2cccc(F)c2)cc1F)C(N)=O | 61 | > 163 | > 10
C[C@H](NCc1ccc(OCc2cccc(F)c2)cc1C1CC1)C(N)=O | 1660 | 45 | 75.2
C[C@H](NCc1ccc(OCc2cccc(F)c2)cc1)C(=O)NCCN1CCOCC1 | > 10000 |  | 
NC(=O)[C@@H]1CC(F)(F)CN1Cc1ccc(OCc2cccc(F)c2)cc1 | 1070 | 14 | 14.5
NC(=O)[C@@H]1CCN1Cc1ccc(OCc2cccc(F)c2)cc1F | 26 | 715 | 18.6
CC1(C)C[C@@H](C(N)=O)N(Cc2ccc(OCc3cccc(F)c3)cc2F)C1 | 6350 |  | 
CC1(C)C[C@@H](C(N)=O)N(Cc2ccc(OCc3cccc(F)c3)cc2)C1 | 1420 | 12 | 17.5
C[C@H](NCc1ccc(OCc2cccc(F)c2)cc1Cl)C(N)=O | 28 | 427 | 12
Cc1cc(OCc2cccc(F)c2)ccc1CN1CC[C@H]1C(N)=O | 258 | 34 | 8.65
NC(=O)C1CN(Cc2ccc(OCc3cccc(F)c3)cc2)C1 | 1420 | > 7 | > 10
NC(=O)[C@@H]1CCN1Cc1ccc(OCc2cccc(F)c2)cc1 | 21 | 1280 | 26.8
NC(=O)[C@@H]1COCCN1Cc1ccc(OCc2cccc(F)c2)cc1F | 2870 | 20 | 57.6
